Data set [1] can be described thus: MTT: Cell Damaging and Protecting Effect Test. In kind it is cell-based, rabbit (male Japanese White). As to conditions: rabbit, gastric corpus mucosa cells, final concentration 10^-4 M, smaller value is better, read-out: MTT: cell damaging rate. Summed up:
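Primary gastric corpus mucosal cells from male Japanese White rabbit, enzymatically dispersed and cultured 3 days to confluence. Compound at final 10^-4 M added with MTT for 4 h at 37 °C; formazan read at OD 570–630. Cell damaging rate (%) calculated against control absorbance.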

The test system of a further data set is mice. On the set-up: species or system mouse (male Slc:ICR). As to conditions: mouse, in vivo. As for the experimental part: AT: Single Dose Toxicity Pretest
Male Slc:ICR mice (5-week-old) were used. Each group has 3 to 5 mice and each mouse was fasted, but allowed free access to water, for 4 to 5 hours from 9 a.m. in the test day. Then, 2,000 mg/10 ml/kg of the sample compound dissolved or suspended in an aqueous solution of 0.5% sodium carboxymethyl cellulose was orally administered thereto. To a control, only the vehicle was administered. […] The body weight was measured before and after the fasting as well as at the same time everyday. The dead animals were immediately subjected to autopsy and their organs were observed by naked eyes. Also, the living animals were sacrificed with ether or carbon dioxide one week after the administration and then their organs were observed by naked eyes.
The toxicity at the single dose of 2,000 mg/kg of the sample compound was expressed as being classified into 5 levels.
5: mortality rate is 0%; no toxicity is found at all both in behavior and organs.
4: Mortality rate is 0%; while no toxicity is found in organs, slight toxicity is observed in behavior or body weight increase.
3: While there is a dead animal (though not all the animals are dead), no toxicity is found in organs.
2: Regardless of whether there is a dead animal or not, toxicity is found in organs.
1: All the animals are dead.

Data set [2] has as its system Helicobacter pyroli (HP NCTC 11637). Put plainly: AHP: Antibacterial Activity Test Against Helicobacter pyroli (agar dilution). It is filed as cell-based, Helicobacter pyroli NCTC 11637. As for the experimental part: AHP: Antibacterial Activity Test Against Helicobacter pyroli The minimum inhibitory concentration (MIC) against Helicobacter pyroli (microacrophilic gram-negative bacterium which is supposed to deeply involve in pathogenesis, relapse, and recrudescence of ulcer, referred to as "HP" in the following) is measured so as to find out compounds which have antibacterial activity against Helicobacter pyroli. MICs were determined by the agar dilution method. The stock culture (-80° C.) of HP NCTC 11637 was thawed and cultured on tripticase soy agar supplemented with 5% sheep blood at 37° C. in an atmosphere of 5% O2, 10% CO2, and 85% N2. Grown colonies were transferred to the same plate and precultured for 3 days under the same condition. […] An appropriate amount of the colony grown on the plate by preculturing was suspended in Mueller Hinton broth till turbidness was recognizable by naked eyes, thereby yielding a bacterial suspension concentrate containing about 10^7 cfu/ml. […] 10 μl of the bacterial suspension for inoculation (about 10^3 cfu) was dropped by dispenser onto an MIC plate for inoculation and cultured for 7 days under the same condition as that of preculture. Thereafter, it was judged whether there had been bacteria growth or not. […] As the result of the comparison of these plates, when the number of the colony on the plate containing the sample compound was less than 90% with respect to that on the control plate, it was represented by "+". Contrary to this, when there was 90% or more, it was represented by "-".

The term MIC denotes the least concentration at which growth counts as inhibited. A lower MIC goes with greater potency.

Molecules are shown by their SMILES.

In the case of `CCN(CC)CCNC(=O)c1cc(OCC=C(C)C)cc(OCC=C(C)C)c1` [Example 14], the cytotoxicity at 4 h, 100 µM in data set [1] was 43%. In the data set with mice, the “AT: single dose toxicity level” value came out at 5.
`CCN(CC)CCNC(=O)c1cc(OC/C=C(\C)CCC=C(C)C)ccc1OC/C=C(\C)CCC=C(C)C` [Example 16]: the cytotoxicity at 4 h, 100 µM in data set [1] was 40%. The “AT: single dose toxicity level” value in the data set on mice is listed as 5.
With `CC(C)=CCC/C(C)=C/COc1ccc(OC/C=C(\C)CCC=C(C)C)c(C(=O)NCCN(C(C)C)C(C)C)c1` [Example 17], the cytotoxicity at 4 h, 100 µM in data set [1] turned out to be 27%. The same molecule showed an MIC in data set [2] (Helicobacter, NCTC11637, 168 h, agar dilution, HP NCTC 11637, 7 days) of under 3.13 µg/mL. Further, the “AT: single dose toxicity level” value with mice came out at 5.
With `CCN(CC=C(C)C)c1ccc(C(=O)NCCN(C(C)C)C(C)C)cc1` [Example 28], the cytotoxicity at 4 h, 100 µM in data set [1] came to 16%. Further, the “AHP: growth class where MIC was 100 μg/ml or more” value in data set [2] (MIC 100 μg/ml or more, colony number vs control plate, 250 mM solution of sample compound) is listed as “+ (the number of the colony on the plate containing the sample compound was less than 90% with respect to that on the control plate)”.
Regarding `CCN(CC)CCNC(=O)c1cc(OC)c(OC/C=C(\C)CCC=C(C)C)c(OC)c1` [Example 37], the cytotoxicity at 4 h, 100 µM in data set [1] amounted to 39%. For the same molecule, in the data set with mice, the “AT: single dose toxicity level” value is on record as 4.
The like results for `CCN(CC)CCNC(=O)c1cc(OC)c(OC/C=C(/C)CCC=C(C)C)c(OC)c1` [Example 38] were, in that order, 30% and 5.
In the same order, the values of `COc1cc(C(=O)NCCN(C)C)cc(OC/C=C(\C)CCC=C(C)C)c1OC` [Example 42] are 17% and 3.
